The numbers were not newly measured in US20070264672A1, “DEVELOPMENT OF A NOVEL ASSAY FOR MGMT (METHYL GUANINE METHYL TRANSFERASE)” (priority 2006, published 2007), which cites them from elsewhere.

Series [1] has as its target T1, MGMT (Homo sapiens, UniProt P16455).
T1 construct: endogenous in cells; host or cells: HT-29 (human carcinoma cell line)
T1 sequence (P16455 1-207): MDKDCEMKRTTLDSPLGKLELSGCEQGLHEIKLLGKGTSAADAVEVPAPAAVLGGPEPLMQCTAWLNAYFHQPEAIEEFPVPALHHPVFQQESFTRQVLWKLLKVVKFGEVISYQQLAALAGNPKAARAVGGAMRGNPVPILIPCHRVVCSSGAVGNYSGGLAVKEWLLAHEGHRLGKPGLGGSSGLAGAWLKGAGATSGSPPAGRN
The following applies: human carcinoma HT-29 cell line, after exposure to the agent.

Series [2] concerns human carcinoma HT-29 cell line. The note with it: combined with BCNU.
Series [3] has as its system glioma cell lines.

`CN(N=O)C(=O)N[C@H]1C(O)O[C@H](CO)[C@@H](O)[C@@H]1O` (mixture of isomers) [streptozotocin]: in series [1], the “duration of inhibition of MGMT activity” value is 48 h.
As for `Nc1nc(OCc2ccccc2)c2nc[nH]c2n1` [O^6—BG, O^6 benzylguanine], the “potentiation of BCNU-induced cytotoxicity over that observed with BCNU alone” value in series [2] is reported as “three logs”. Besides, the “duration of inhibition of MGMT activity” value in series [1] was 48 h. Moreover, the “effect on chemotherapy-induced cytotoxicity after depletion of MGMT” value in series [3] was “enhanced”.
